Active and inactive are the calls of the source.
What was measured:
[1] = molecular target: AP2-associated protein kinase 1 (Homo sapiens, UniProt Q2M2I8)
[2] = molecular target: T1, Activin receptor type-1B (Homo sapiens, UniProt P36896)
T1 sequence (P36896 whole entry): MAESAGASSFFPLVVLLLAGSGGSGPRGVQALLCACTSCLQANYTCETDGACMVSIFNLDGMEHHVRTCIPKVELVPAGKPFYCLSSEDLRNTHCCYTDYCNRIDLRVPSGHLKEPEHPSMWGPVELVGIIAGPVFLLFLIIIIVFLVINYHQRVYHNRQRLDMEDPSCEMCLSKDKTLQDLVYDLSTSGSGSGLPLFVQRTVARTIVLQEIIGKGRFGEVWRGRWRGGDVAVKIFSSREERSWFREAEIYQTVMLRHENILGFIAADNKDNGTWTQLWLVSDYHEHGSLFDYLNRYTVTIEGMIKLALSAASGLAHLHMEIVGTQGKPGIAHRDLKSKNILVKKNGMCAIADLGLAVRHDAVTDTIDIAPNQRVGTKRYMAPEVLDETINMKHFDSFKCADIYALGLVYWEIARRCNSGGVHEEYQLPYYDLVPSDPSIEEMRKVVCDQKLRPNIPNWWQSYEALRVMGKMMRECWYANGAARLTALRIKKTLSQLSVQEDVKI

[3] = molecular target: Casein kinase I isoform alpha (Homo sapiens, UniProt P48729)
Sequence of Casein kinase I isoform alpha (P48729 whole entry, canonical isoform): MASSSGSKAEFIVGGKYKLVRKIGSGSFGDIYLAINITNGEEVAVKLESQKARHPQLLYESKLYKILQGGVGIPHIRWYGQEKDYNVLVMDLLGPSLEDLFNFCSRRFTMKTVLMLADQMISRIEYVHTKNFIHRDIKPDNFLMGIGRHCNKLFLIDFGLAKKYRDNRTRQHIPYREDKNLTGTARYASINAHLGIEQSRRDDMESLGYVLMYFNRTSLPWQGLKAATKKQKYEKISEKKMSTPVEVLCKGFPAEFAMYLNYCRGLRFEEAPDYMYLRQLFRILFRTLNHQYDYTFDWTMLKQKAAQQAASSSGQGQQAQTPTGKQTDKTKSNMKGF

[4] = molecular target: Casein kinase I isoform gamma-1 (Homo sapiens, UniProt Q9HCP0)
Sequence of Casein kinase I isoform gamma-1 (Q9HCP0 whole entry, canonical isoform): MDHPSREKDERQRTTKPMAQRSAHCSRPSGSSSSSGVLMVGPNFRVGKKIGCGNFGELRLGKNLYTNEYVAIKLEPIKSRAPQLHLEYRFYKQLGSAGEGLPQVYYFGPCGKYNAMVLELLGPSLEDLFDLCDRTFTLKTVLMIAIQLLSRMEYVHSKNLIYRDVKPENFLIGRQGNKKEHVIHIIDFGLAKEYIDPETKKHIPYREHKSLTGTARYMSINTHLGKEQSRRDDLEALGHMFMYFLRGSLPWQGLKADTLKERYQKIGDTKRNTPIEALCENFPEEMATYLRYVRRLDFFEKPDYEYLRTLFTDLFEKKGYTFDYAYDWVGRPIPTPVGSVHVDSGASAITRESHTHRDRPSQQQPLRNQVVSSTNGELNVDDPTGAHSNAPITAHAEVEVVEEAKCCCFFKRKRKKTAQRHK

[5] = molecular target: T2, Ephrin type-B receptor 3 (Homo sapiens, UniProt P54753)
T2 sequence (P54753 whole entry): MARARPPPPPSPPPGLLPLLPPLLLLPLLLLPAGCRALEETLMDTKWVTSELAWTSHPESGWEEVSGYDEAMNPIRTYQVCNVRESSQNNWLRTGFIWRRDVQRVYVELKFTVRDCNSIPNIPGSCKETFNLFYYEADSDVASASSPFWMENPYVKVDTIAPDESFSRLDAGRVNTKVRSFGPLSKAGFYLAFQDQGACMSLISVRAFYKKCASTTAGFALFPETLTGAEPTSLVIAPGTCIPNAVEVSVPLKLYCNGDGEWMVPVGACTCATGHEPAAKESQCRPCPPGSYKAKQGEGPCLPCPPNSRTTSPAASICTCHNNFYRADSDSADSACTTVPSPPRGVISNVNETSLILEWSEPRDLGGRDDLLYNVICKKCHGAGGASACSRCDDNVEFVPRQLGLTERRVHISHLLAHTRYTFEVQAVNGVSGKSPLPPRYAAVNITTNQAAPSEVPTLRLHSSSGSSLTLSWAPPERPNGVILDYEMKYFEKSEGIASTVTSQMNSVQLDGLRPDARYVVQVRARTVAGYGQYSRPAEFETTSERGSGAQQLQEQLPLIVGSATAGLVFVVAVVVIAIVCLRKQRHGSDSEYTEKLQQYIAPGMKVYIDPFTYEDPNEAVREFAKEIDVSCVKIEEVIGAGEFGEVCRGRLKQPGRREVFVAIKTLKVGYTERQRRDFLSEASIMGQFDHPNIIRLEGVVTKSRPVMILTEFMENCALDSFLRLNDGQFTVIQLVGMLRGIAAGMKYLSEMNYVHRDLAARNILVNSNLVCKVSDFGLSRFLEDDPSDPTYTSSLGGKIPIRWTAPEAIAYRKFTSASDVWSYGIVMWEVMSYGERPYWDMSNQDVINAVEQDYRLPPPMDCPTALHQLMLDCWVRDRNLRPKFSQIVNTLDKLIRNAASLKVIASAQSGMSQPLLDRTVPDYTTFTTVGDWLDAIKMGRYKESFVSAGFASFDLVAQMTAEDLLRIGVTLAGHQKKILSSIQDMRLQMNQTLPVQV

[6] = molecular target: Tyrosine-protein kinase Fyn (Homo sapiens, UniProt P06241)
Sequence of Tyrosine-protein kinase Fyn (P06241 whole entry): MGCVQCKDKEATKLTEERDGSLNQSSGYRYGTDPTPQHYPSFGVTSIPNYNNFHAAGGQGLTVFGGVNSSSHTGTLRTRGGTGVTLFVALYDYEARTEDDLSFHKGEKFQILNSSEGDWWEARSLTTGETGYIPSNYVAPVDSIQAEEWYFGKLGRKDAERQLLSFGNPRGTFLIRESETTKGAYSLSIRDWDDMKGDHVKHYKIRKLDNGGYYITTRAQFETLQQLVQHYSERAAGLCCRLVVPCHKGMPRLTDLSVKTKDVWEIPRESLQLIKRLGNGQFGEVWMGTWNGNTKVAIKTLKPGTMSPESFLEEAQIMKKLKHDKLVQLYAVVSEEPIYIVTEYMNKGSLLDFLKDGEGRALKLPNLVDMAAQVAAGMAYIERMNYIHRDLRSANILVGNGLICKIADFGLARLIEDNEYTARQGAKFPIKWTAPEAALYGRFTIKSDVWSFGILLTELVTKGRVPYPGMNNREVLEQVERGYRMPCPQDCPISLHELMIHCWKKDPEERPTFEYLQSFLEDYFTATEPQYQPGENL

[7] = molecular target: Guanine nucleotide-binding protein G(i) subunit alpha-2 (Homo sapiens, UniProt P04899)
Sequence of Guanine nucleotide-binding protein G(i) subunit alpha-2 (P04899 whole entry): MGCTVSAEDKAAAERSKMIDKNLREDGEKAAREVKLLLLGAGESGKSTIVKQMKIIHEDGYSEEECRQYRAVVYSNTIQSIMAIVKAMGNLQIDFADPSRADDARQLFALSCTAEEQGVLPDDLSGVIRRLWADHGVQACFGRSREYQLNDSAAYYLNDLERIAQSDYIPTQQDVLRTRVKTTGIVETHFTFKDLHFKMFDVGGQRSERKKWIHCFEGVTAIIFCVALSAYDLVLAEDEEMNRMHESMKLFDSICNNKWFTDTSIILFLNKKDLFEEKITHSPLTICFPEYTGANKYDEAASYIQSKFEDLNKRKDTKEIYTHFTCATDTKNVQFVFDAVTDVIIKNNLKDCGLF

[8] = molecular target: Putative heat shock protein HSP 90-beta 2 (Homo sapiens, UniProt Q58FF8)
Sequence of Putative heat shock protein HSP 90-beta 2 (Q58FF8 whole entry): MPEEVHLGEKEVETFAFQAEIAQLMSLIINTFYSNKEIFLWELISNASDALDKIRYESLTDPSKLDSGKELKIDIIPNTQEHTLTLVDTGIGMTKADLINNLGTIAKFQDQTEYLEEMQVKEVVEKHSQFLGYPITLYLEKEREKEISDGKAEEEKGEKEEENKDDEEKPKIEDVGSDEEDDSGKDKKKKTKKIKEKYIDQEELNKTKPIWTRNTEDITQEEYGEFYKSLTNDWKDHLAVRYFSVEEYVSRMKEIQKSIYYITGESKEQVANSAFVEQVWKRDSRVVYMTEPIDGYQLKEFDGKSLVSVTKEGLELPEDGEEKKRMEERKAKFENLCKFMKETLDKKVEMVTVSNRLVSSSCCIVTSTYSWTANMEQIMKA

[9] = molecular target: Mitogen-activated protein kinase 11 (Homo sapiens, UniProt Q15759)
Sequence of Mitogen-activated protein kinase 11 (Q15759 whole entry): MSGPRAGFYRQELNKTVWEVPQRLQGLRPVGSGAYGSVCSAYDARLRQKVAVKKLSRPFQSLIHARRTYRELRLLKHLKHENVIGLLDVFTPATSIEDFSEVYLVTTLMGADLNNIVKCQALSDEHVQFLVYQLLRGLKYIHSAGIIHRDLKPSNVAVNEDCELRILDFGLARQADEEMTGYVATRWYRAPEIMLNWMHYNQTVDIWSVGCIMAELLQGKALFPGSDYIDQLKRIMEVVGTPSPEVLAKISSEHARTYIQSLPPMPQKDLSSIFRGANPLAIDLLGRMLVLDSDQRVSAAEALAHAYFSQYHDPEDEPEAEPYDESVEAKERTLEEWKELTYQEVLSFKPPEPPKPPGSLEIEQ

[10] = molecular target: Focal adhesion kinase 1 (Homo sapiens, UniProt Q05397)
Sequence of Focal adhesion kinase 1 (Q05397 whole entry): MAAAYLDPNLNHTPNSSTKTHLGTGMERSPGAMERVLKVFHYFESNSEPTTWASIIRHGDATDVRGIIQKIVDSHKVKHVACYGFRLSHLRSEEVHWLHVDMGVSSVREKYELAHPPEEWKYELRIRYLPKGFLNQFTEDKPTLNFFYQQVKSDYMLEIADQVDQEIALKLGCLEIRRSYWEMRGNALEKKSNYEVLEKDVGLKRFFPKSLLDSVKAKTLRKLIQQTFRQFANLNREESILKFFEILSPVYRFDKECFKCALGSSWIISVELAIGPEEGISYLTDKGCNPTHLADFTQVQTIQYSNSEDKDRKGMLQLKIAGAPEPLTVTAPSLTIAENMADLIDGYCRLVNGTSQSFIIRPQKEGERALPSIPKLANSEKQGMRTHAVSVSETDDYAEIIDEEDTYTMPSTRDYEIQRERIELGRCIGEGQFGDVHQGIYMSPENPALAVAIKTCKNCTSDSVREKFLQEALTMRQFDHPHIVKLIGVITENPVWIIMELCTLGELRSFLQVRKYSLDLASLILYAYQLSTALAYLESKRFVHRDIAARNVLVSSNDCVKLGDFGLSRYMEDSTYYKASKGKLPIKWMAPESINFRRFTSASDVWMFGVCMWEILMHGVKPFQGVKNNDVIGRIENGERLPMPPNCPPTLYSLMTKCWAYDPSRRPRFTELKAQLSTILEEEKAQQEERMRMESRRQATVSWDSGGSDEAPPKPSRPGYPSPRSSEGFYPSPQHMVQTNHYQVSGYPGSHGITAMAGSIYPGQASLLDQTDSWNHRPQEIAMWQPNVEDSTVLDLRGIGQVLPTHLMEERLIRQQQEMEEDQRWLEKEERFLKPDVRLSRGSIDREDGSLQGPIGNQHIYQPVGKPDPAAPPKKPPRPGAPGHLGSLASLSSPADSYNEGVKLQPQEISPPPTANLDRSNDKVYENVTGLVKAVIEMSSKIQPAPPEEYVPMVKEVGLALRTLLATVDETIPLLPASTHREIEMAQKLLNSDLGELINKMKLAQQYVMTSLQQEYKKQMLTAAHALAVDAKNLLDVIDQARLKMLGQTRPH

[11] = molecular target: Ribosomal protein S6 kinase beta-1 (Homo sapiens, UniProt P23443)
Sequence of Ribosomal protein S6 kinase beta-1 (P23443 whole entry): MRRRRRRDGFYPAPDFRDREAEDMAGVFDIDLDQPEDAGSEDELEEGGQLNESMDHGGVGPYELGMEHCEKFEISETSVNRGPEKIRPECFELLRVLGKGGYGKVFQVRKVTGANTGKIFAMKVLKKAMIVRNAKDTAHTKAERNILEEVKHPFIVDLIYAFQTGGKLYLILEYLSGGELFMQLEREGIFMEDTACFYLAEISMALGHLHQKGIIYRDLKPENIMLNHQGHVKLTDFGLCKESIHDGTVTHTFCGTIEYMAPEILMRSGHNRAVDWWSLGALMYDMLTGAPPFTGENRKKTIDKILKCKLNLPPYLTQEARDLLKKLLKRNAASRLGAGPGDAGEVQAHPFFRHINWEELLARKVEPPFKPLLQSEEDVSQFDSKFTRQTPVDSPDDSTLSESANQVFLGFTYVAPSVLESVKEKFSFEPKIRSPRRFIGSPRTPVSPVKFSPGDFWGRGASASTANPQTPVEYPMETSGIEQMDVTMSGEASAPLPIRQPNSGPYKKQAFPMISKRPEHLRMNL

[12] = molecular target: T3, Succinate--CoA ligase [ADP-forming] subunit beta, mitochondrial (Homo sapiens, UniProt Q9P2R7)
T3 sequence (Q9P2R7 whole entry): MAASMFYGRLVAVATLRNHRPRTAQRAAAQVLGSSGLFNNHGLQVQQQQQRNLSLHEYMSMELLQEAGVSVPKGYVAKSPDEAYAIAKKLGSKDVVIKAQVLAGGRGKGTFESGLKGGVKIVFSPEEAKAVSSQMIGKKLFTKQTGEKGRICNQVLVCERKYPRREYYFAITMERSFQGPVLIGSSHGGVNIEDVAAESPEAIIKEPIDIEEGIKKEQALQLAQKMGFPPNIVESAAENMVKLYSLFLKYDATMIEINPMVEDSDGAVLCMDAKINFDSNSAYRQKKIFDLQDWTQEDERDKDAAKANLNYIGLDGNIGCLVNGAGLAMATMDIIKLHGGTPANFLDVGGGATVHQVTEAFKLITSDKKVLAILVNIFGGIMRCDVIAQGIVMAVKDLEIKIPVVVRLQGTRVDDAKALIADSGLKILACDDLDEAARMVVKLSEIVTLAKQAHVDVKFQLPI
Also: in the data inactive means no Kd found up to 30 µM.

Sequence of AP2-associated protein kinase 1 (Q2M2I8 whole entry): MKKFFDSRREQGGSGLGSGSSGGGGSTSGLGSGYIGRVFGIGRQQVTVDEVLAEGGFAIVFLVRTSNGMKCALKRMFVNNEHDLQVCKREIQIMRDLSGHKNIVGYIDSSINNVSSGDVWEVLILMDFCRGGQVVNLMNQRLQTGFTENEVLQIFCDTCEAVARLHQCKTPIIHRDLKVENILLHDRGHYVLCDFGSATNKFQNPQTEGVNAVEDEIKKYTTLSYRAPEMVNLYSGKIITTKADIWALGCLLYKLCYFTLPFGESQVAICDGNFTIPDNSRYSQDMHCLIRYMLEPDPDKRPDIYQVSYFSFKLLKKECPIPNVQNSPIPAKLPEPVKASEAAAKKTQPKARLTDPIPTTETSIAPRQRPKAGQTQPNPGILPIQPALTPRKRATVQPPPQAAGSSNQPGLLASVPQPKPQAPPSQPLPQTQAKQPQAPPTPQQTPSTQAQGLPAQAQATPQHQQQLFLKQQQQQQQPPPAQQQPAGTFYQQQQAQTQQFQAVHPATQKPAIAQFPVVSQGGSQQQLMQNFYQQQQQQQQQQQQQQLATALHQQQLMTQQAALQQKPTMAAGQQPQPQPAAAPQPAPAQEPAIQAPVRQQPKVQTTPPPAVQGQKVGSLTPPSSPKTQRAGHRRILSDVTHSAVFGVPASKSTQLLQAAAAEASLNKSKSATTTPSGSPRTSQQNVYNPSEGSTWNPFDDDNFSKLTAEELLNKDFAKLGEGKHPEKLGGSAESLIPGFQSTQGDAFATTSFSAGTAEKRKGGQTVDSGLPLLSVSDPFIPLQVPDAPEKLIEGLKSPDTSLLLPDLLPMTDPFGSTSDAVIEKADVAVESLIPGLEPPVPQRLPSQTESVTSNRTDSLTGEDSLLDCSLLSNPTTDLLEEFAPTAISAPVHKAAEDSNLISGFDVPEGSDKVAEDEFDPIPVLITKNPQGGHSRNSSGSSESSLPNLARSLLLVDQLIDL

Kd [1] | Kd [2] | Kd [3] | Kd [4] | Kd [5] | Kd [6] | Kd [7] | Kd [8] | Kd [9] | Kd [10] | Kd [11] | Kd [12] | SMILES
> 30 µM (inactive) | > 30 µM (inactive) | > 30 µM (inactive) | > 30 µM (inactive) | > 30 µM (inactive) | > 30 µM (inactive) | > 30 µM (inactive) | > 30 µM (inactive) | > 30 µM (inactive) | > 30 µM (inactive) | > 30 µM (inactive) | > 30 µM (inactive) | C[C@H]1CNCCCN1S(=O)(=O)c1cccc2cncc(F)c12
> 30 µM (inactive) | > 30 µM (inactive) | > 30 µM (inactive) | > 30 µM (inactive) | > 30 µM (inactive) | 0.187 µM (active) | > 30 µM (inactive) | > 30 µM (inactive) | > 30 µM (inactive) | > 30 µM (inactive) | > 30 µM (inactive) | > 30 µM (inactive) | CCNC(=O)C#Cc1ccc2c(c1)NC(=O)/C2=C(\Nc1ccc(CN(C)C)cc1)c1ccccc1
> 30 µM (inactive) | > 30 µM (inactive) | > 30 µM (inactive) | > 30 µM (inactive) | > 30 µM (inactive) | > 30 µM (inactive) | > 30 µM (inactive) | > 30 µM (inactive) | – | > 30 µM (inactive) | > 30 µM (inactive) | > 30 µM (inactive) | Cc1nc(NC(=O)N2CCC[C@H]2C(N)=O)sc1-c1ccnc(C(C)(C)C(F)(F)F)c1 [ALPELISIB]
> 30 µM (inactive) | > 30 µM (inactive) | > 30 µM (inactive) | > 30 µM (inactive) | > 30 µM (inactive) | > 30 µM (inactive) | > 30 µM (inactive) | > 30 µM (inactive) | > 30 µM (inactive) | > 30 µM (inactive) | > 30 µM (inactive) | – | Cc1csc(-c2nnc(Nc3ccc(Oc4ncccc4-c4ccnc(N)n4)cc3)c3ccccc23)c1 [AMG-900]
0.017 µM (active) | 0.811 µM (active) | > 30 µM (inactive) | > 30 µM (inactive) | > 30 µM (inactive) | – | > 30 µM (inactive) | > 30 µM (inactive) | > 30 µM (inactive) | > 30 µM (inactive) | 0.117 µM (active) | > 30 µM (inactive) | O=C(Nc1c[nH]nc1-c1nc2cc(CN3CCOCC3)ccc2[nH]1)NC1CC1 [AT-9283]
> 30 µM (inactive) | > 30 µM (inactive) | > 30 µM (inactive) | > 30 µM (inactive) | > 30 µM (inactive) | > 30 µM (inactive) | > 30 µM (inactive) | > 30 µM (inactive) | > 30 µM (inactive) | – | > 30 µM (inactive) | > 30 µM (inactive) | Cc1cc(Nc2ncc(Cl)c(Nc3ccccc3S(=O)(=O)C(C)C)n2)c(OC(C)C)cc1C1CCNCC1 [CERITINIB]
> 30 µM (inactive) | > 30 µM (inactive) | > 30 µM (inactive) | > 30 µM (inactive) | > 30 µM (inactive) | > 30 µM (inactive) | > 30 µM (inactive) | > 30 µM (inactive) | > 30 µM (inactive) | > 30 µM (inactive) | > 30 µM (inactive) | – | C#Cc1cccc(Nc2ncnc3cc(OC)c(OCCCCCCC(=O)NO)cc23)c1 [CUDC-101]
> 30 µM (inactive) | > 30 µM (inactive) | > 30 µM (inactive) | > 30 µM (inactive) | > 30 µM (inactive) | > 30 µM (inactive) | > 30 µM (inactive) | > 30 µM (inactive) | > 30 µM (inactive) | > 30 µM (inactive) | > 30 µM (inactive) | – | COc1ccc(S(=O)(=O)N(C(C)=O)c2ccccc2/C=C/c2cc[n+]([O-])cc2)cc1 [HMN-214]
7.41 µM (active) | > 30 µM (inactive) | 0.995 µM (active) | > 30 µM (inactive) | – | 1.44 µM (active) | > 30 µM (inactive) | > 30 µM (inactive) | > 30 µM (inactive) | > 30 µM (inactive) | > 30 µM (inactive) | > 30 µM (inactive) | CNC(=O)c1nn(C)c2c1C(C)(C)Cc1cnc(Nc3ccc(N4CCN(C)CC4)cc3)nc1-2 [MILCICLIB]
> 30 µM (inactive) | > 30 µM (inactive) | > 30 µM (inactive) | > 30 µM (inactive) | > 30 µM (inactive) | > 30 µM (inactive) | > 30 µM (inactive) | > 30 µM (inactive) | > 30 µM (inactive) | > 30 µM (inactive) | > 30 µM (inactive) | – | Cc1cnc(NC(=O)Nc2cc(Br)c(C)cc2OC[C@@H]2CNCCO2)cn1 [RABUSERTIB]
> 30 µM (inactive) | > 30 µM (inactive) | > 30 µM (inactive) | > 30 µM (inactive) | > 30 µM (inactive) | > 30 µM (inactive) | > 30 µM (inactive) | – | > 30 µM (inactive) | > 30 µM (inactive) | > 30 µM (inactive) | – | CO[C@H]1C[C@@H]2CC[C@@H](C)[C@@](O)(O2)C(=O)C(=O)N2CCCC[C@H]2C(=O)O[C@H]([C@H](C)C[C@@H]2CC[C@@H](OP(C)(C)=O)[C@H](OC)C2)CC(=O)[C@H](C)/C=C(\C)[C@@H](O)[C@@H](OC)C(=O)[C@H](C)C[C@H](C)/C=C/C=C/C=C/1C [RIDAFOROLIMUS]
> 30 µM (inactive) | > 30 µM (inactive) | > 30 µM (inactive) | > 30 µM (inactive) | – | 0.095 µM (active) | > 30 µM (inactive) | > 30 µM (inactive) | > 30 µM (inactive) | 0.264 µM (active) | > 30 µM (inactive) | > 30 µM (inactive) | CCS(=O)(=O)c1cccc(-c2cc(C(=O)NC3CCN(C)CC3)c(C)c3[nH]c4ncc(C)cc4c23)c1 [TAK-901]

SMILES | Kd [1] | Kd [2] | Kd [3] | Kd [4] | Kd [5] | Kd [6] | Kd [7] | Kd [8] | Kd [9] | Kd [10] | Kd [11] | Kd [12]
NC(=O)Nc1cc(-c2cccc(F)c2)sc1C(=O)N[C@H]1CCCNC1 [AZD-7762] | 0.073 µM (active) | > 30 µM (inactive) | > 30 µM (inactive) | > 30 µM (inactive) | > 30 µM (inactive) | 0.284 µM (active) | > 30 µM (inactive) | > 30 µM (inactive) | > 30 µM (inactive) | 0.948 µM (active) | > 30 µM (inactive) | –
CCOc1cc2ncc(C#N)c(Nc3ccc(F)c(Cl)c3)c2cc1NC(=O)/C=C/CN(C)C [PELITINIB] | > 30 µM (inactive) | > 30 µM (inactive) | > 30 µM (inactive) | > 30 µM (inactive) | > 30 µM (inactive) | – | > 30 µM (inactive) | – | > 30 µM (inactive) | – | > 30 µM (inactive) | > 30 µM (inactive)

From ChEMBL document CHEMBL3991601, “The target landscape of clinical kinase drugs” (Science, 2017)
